The target of one data set is T1, m17β-HSD2 (Mus musculus, UniProt P51658).
T1 construct: The microsomal fraction (m17β-HSD2) was obtained from mouse liver as described for h17β-HSD2; tissue Pharmacelsus GmbH (mouse livers); host or cells: mouse liver, microsomal fraction
T1 sequence (P51658 1-381): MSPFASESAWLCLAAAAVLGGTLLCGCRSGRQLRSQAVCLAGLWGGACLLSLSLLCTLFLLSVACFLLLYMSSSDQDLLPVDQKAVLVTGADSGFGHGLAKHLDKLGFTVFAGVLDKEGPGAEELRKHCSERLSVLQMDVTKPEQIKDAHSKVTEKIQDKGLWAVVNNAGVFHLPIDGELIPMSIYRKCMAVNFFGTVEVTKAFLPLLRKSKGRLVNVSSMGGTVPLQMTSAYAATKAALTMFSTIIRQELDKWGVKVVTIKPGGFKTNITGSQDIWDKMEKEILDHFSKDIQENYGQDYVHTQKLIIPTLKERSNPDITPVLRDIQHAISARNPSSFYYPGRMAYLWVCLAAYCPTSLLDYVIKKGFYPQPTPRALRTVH
Put plainly: Inhibition of m17β-HSD2 in cell-free assay. Format: biochemical. The note with it: read-out: % inh. at 1 μM m17β-HSD2. The procedure:
(§1) h17β-HSD2, h17β-HSD1, m17β-HSD2 and m17β-HSD1 cell-free assays were performed similarly, by incubating enzyme, tritiated substrate, cofactor and inhibitor, according to described procedures.
The microsomal fraction (m17β-HSD2) was obtained from mouse liver as described for h17β-HSD2. Inhibitory activities were evaluated by a method identical to the one described for the human enzyme.
(§2) Inhibitory activities were evaluated following an established method with minor modifications. Briefly, the enzyme preparation was incubated with NAD^+ [1500 μM] in the presence of potential inhibitors at 37C in a phosphate buffer (50 mM) supplemented with 20% of glycerol and EDTA 1mM. Inhibitor stock solutions were prepared in DMSO. Final concentration of DMSO was adjusted to 1% in all samples. […] After 20 min, the incubation was stopped with HgCl2 and the mixture was extracted with ether. After evaporation, the steroids were dissolved in acetonitrile/water (45:55). […] Detection and quantification of the steroids were performed using a radioflow detector (Berthold Technologies, Bad Wildbad). […] Each value was calculated from at least two independent experiments.

The target of the next data set is T2, h17β-HSD1 (Homo sapiens, UniProt P14061).
T2 construct: h17β-HSD1 was obtained after precipitation with ammonium sulfate from the cytosolic fraction; from tissue; host or cells: human placenta, cytosolic fraction
T2 sequence (P14061 1-328): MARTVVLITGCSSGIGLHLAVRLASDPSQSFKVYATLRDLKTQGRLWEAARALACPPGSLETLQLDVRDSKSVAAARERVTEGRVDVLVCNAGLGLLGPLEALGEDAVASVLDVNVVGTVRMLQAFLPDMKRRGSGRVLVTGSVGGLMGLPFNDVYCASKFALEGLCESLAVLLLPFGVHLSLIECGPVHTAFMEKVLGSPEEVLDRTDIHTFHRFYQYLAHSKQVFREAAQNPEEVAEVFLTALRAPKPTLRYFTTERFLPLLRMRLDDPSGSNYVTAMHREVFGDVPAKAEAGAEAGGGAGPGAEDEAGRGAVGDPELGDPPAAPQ
Put plainly: Inhibition of h17β-HSD1 in cell-free assay. Format: biochemical. The settings on record: human placental cytosolic fraction, substrate E1 [500 nM], cofactor NADH [500 μM]; for inhibition at 1 µM: read-out: % inh. at 1 μM h17β-HSD1. The procedure:
as §1
(§3) Cytosolic (h17β-HSD1) and microsomal (h17β-HSD2) fractions were obtained from human placenta according to previously described procedures. Fresh tissue was homogenized and the enzymes were separated from the mitochondria, cell membrane. Nucleus and other rests by fractional centrifugation at 1000 g, 10.000 g and 150.000 g. The pellet fraction containing the microsomal h17β-HSD2 was used for the determination of h17β-HSD2 inhibition, while h17β-HSD1 was obtained after precipitation with ammonium sulfate from the cytosolic fraction for use of testing of h17β-HSD1 inhibition. Aliquots containing h17β-HSD1 or h17β-HSD2 were stored frozen.
(§4) The 17β-HSD1 inhibition assay was performed similarly to the h17β-HSD2 test. The human cytosolic enzyme was incubated with NADH [500 μM] while the mouse recombinant enzyme was reacted with NADPH [500 μM].Test compound and a mixture of unlabelled- and [^3H]-E1 (final concentration: 500 nM, 0.15 μCi) were added and mixed for 10 min at 37°C. Further treatment of the samples and HPLC separation was carried out as mentioned above for h17β-HSD2.

In another data set the target is T3, m17β-HSD1 (Mus musculus, UniProt P51656).
T3 construct: host or cells: HEK 293 cells, transient transfection, 1000 g supernatant of the lysate
T3 sequence (P51656 1-344): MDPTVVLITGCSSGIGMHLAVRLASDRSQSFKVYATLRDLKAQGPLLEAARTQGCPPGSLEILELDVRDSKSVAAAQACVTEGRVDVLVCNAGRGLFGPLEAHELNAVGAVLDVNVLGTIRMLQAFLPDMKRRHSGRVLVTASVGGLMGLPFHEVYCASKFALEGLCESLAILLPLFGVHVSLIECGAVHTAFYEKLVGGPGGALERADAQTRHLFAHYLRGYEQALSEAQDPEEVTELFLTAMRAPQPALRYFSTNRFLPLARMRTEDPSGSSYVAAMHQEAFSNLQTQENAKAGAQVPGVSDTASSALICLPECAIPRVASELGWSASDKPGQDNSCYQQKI
Put plainly: Inhibition of m17β-HSD1 in cell-free assay. Format: biochemical. The settings on record: recombinant m17β-HSD1, substrate E1 [500 nM], NADPH [500 μM]. The procedure: as §1
Recombinant m17β-HSD1 enzyme was produced by transfection of HEK 293 cells with a m17β-HSD1 expression plasmid (coding sequence of NM_010475 in pCMV6Entry vector, OriGene Technologies, Inc.) according to a described procedure. 48 hours after transfection cells were homogenized by sonication (3 x 10 s) in a buffer containing saccharose (40 mMTris, 250 mM saccharose, 5 mM EDTA, 7 mM DTT, 1 mM PMSF, pH 7,5). Cell lysate was centrifuged (1000 g, 15 min, 4°C) and 20% glycerol was added to the supernatant before aliquots were frozen and stored at -70°C.
as §4

Another data set has as its target T4, h17β-HSD2 (Homo sapiens, UniProt P37059).
T4 sequence (P37059 1-387): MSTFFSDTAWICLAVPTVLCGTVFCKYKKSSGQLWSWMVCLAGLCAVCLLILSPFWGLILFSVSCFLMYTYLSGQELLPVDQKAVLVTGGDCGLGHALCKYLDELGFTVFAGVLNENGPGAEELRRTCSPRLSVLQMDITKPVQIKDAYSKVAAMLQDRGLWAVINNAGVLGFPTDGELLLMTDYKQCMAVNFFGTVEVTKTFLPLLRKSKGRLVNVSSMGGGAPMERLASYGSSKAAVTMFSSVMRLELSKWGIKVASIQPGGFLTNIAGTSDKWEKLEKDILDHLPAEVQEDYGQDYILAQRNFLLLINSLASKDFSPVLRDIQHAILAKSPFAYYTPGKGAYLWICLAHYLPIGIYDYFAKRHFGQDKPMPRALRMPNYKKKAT
In words: Inhibition of h17β-HSD2 in cell-free assay. The class given is biochemical. Further details: from tissue; host or cells: human placenta, microsomal fraction. The settings on record: for s.f. (selectivity factor) = IC50(17β-HSD1)/IC50(17β-HSD2): human enzymes, cell-free; for inhibition at 1 µM: read-out: % inh. at 1 μM h17β-HSD2. The procedure:
as §1, §3, §2

Data set [1] in a line: Metabolic stability in a cell-free assay (liver S9 fraction). The class given is in vitro ADME. The note with it: pooled liver S9 fraction; human liver S9 fraction 1 mg/ml, NADPH regenerating system, UDPGA, PAPS, 37°C; inhibitor 1 μM; read-out: Inhibitor t1/2. The procedure: Compounds 7a, 8a, 16a, 19a, 22a, 27a and 27 were tested according to established method[33–35]For evaluation of phase I and II metabolic stability 1 μM compound was incubated with 1 mg/ml pooled mammalian liver S9 fraction (BD Gentest), 2 mM NADPH regenerating system, 1 mM UDPGA and 0.1 mM PAPS at 37°C for 0, 5, 15 and 60 minutes at a final volume of 100 μL. The incubation was stopped by precipitation of S9 enzymes with 2 volumes of cold acetonitrile containing internal standard. Concentration of the remaining test compound at the different time points was analyzed by LC-MS/MS and used to determine half-life (t1/2).

As usually defined, the IC50 is the concentration needed to halve the response being measured. Read a high IC50 as weaker potency in that assay. The term melting point denotes the temperature of the solid-liquid transition. For `Cc1cccc(N(C)C(=O)c2ccc(-c3ccc4c(c3)OCO4)cc2)c1` [Compound 23a, 4-(Benzo[d][1, 3]dioxol-5-yl)-N-methyl-N-(m-tolyl)benzamide], the melting point was 111 to 113 °C. The inhibition at 1 µM on m17β-HSD2 stood at 70%. The compound also showed an IC50 against h17β-HSD1 of 10900 nM. On m17β-HSD1, the “inhibition of m17β-HSD1 at 1 μM” value was “None of the tested compounds showed any inhibition”. In addition, at h17β-HSD2, 560 nM corresponded to half-maximal inhibition (IC50) and the “s.f. (selectivity factor) = IC50(17β-HSD1)/IC50(17β-HSD2)” value was 20.

`COc1cccc(N(C)C(=O)c2ccc(-c3ccc4c(c3)OCO4)cc2)c1` [Compound 22a, 4-(Benzo[d][1, 3]dioxol-5-yl)-N-(3-methoxyphenyl)-N-methylbenzamide] gave a melting point of 139 to 141 °C. Further, at m17β-HSD2, the inhibition at 1 µM came out at 56%. Further, on h17β-HSD1, the inhibition at 1 µM was below 10%. Also, the inhibition at 1 µM at h17β-HSD2 was found to be 51%.

With `COc1cccc(N(C)C(=O)c2ccc(-c3cccc(N(C)C)c3)cc2)c1` [Compound 15a, 3'-(Dimethylamino)-N-(3-methoxyphenyl)-N-methyl-[1,1'-biphenyl]-4-carboxamide], the inhibition at 1 µM at m17β-HSD2 stood at 67%. Also, at h17β-HSD1, it took 5000 nM to reach half-maximal inhibition (IC50). Further, at m17β-HSD1, the “inhibition of m17β-HSD1 at 1 μM” value is reported as “None of the tested compounds showed any inhibition”. Besides, on h17β-HSD2, the IC50 was determined as 650 nM and the “s.f. (selectivity factor) = IC50(17β-HSD1)/IC50(17β-HSD2)” value is listed as 8.

For the compound `COc1cccc(-c2ccc(C(=O)N(C)c3cccc(C)c3)cc2)c1` [Compound 5a, 3'-Methoxy-N-methyl-N-(m-tolyl)-[1,1'-biphenyl]-4-carboxamide], the values for the inhibition at 1 µM at m17β-HSD2, at h17β-HSD1 and at h17β-HSD2 were 56%, below 10% and 44%, respectively. Moreover, the half-life at 1 μM in data set [1] is 1.93 h.

For the compound `COc1cccc(N(C)C(=O)c2ccc(-c3cccc(Cl)c3)cc2)c1` [Compound 14a, 3'-Chloro-N-(3-methoxyphenyl)-N-methyl-[1,1'-biphenyl]-4-carboxamide], the inhibition at 1 µM on m17β-HSD2 stood at 73%. For the same compound, the IC50 against h17β-HSD1 was found to be 12600 nM. The “inhibition of m17β-HSD1 at 1 μM” value on m17β-HSD1 was “None of the tested compounds showed any inhibition”. Further, the half-life at 1 μM in data set [1] is 1.37 h. Further, on h17β-HSD2, half-maximal inhibition (IC50) was put at 950 nM and the “s.f. (selectivity factor) = IC50(17β-HSD1)/IC50(17β-HSD2)” value was found to be 13.

In turn, `COc1ccc(-c2ccc(C(=O)N(C)c3cccc(OC)c3)cc2)cc1` [Compound 10a, 4'-Methoxy-N-(3-methoxyphenyl)-N-methyl-[1,1'-biphenyl]-4-carboxamide] had a melting point of 128 to 130 °C. Besides, on m17β-HSD2, the inhibition at 1 µM worked out at 66%. The same compound yielded an IC50 at h17β-HSD1 of 27000 nM. The “inhibition of m17β-HSD1 at 1 μM” value on m17β-HSD1 was “None of the tested compounds showed any inhibition”. At h17β-HSD2, the IC50 worked out at 710 nM and the “s.f. (selectivity factor) = IC50(17β-HSD1)/IC50(17β-HSD2)” value is on record as 38.

Regarding `COc1cccc(N(C)C(=O)c2ccc(-c3ccccc3)cc2)c1` [Compound 8a, N-(3-methoxyphenyl)-N-methyl-[1,1'-biphenyl]-4-carboxamide], the melting point was 102 to 104 °C. Besides, the inhibition at 1 µM at m17β-HSD2 is 48%. The inhibition at 1 µM on h17β-HSD1 was 22%. Besides, on h17β-HSD2, the inhibition at 1 µM was found to be 51%.

As for `COc1cccc(N(C)C(=O)c2ccc(-c3cccc(OC)c3F)cc2)c1` [Compound 19a, 2'-Fluoro-3'-methoxy-N-(3-methoxyphenyl)-N-methyl-[1,1'-biphenyl]-4-carboxamide], the melting point was in the range of 125 to 127 °C. For the same compound, the inhibition at 1 µM on m17β-HSD2 turned out to be 67%. Also, the inhibition at 1 µM at h17β-HSD1 was 35%. Moreover, on m17β-HSD1, the “inhibition of m17β-HSD1 at 1 μM” value is “None of the tested compounds showed any inhibition”. In addition, the inhibition at 1 µM at h17β-HSD2 is 64%.

In the case of `CN(C(=O)c1ccc(-c2cccc(O)c2)cc1)c1cccc(O)c1` [Compound 7, 3'-Hydroxy-N-(3-hydroxyphenyl)-N-methyl-[1,1'-biphenyl]-4-carboxamide], the melting point was 168 to 171 °C. Besides, on m17β-HSD2, the inhibition at 1 µM came out at 42%. Also, the inhibition at 1 µM at h17β-HSD1 was found to be 15%. The inhibition at 1 µM on h17β-HSD2 is 36%.

Turning to `COc1cccc(N(C)C(=O)c2ccc(-c3cccc(C)c3F)cc2)c1` [Compound 20a, 2'-Fluoro-N-(3-methoxyphenyl)-N,3'-dimethyl-[1,1'-biphenyl]-4-carboxamide], the melting point lay in the range of 91 to 94 °C. For the same compound, the inhibition at 1 µM at m17β-HSD2 amounted to 48%. At h17β-HSD1, the midpoint of inhibition, the IC50, lay at 11300 nM. Also, in data set [1], the half-life at 1 μM came to 1.73 h. In addition, on h17β-HSD2, the 50% inhibitory concentration (IC50) is 460 nM and the “s.f. (selectivity factor) = IC50(17β-HSD1)/IC50(17β-HSD2)” value worked out at 24.

Values taken from article PMC4521925, “17β-Hydroxysteroid Dehydrogenase Type 2 Inhibition: Discovery of Selective and Metabolically Stable Compounds Inhibiting Both the Human Enzyme and Its Murine Ortholog” (PLoS ONE, 2015).
